Experimental data published in patent EP2535049A1 (Proyecto de Biomedicina Cima, S.L., priority 2011, dated 2012).
Values joined by “and” are separate entries in the source; they are usually repeats but may differ in a detail not shown here. Identical values can stand only once. “Also recorded” adds a separate entry of the source. Marks after values point to notes of the source that are not given here.

What was measured:
[1] = Serum and brain levels of tadalafil after oral administration (HPLC-MS); type: in vivo, Mouse; settings: for logBB (brain): average of logBB data from Ctx, Str and Hip, n=6, spread = Standard Deviation
Description: BB is the ratio of brain versus serum concentration. […] In addition, considering values in the three brain regions, the compound distribution looks quite uniform. Table 2. Blood-brain barrier permeability, as logBB, for Tadalafil
For analysis samples were prepared as follows: • 100 µl of serum were treated with 300 µl of 1% formic acid in acetonitrile. Mixture was vortexed for 5 minutes. The supernatant after centrifugation was filtered using a HybridSPE™ (Supelco, Bellefonte, USA) cartridge and the eluate was dried under an air stream. The powder was reconstituted in 100 µl of 50:50 (v/v) ammonium formate (pH=3):acetonitrile. After centrifugation the supernatant was used for analysis. • 100 mg of brain sample were treated with 600 µl of 1% formic acid in acetonitrile. The mixture was sonicated for 10 seconds and centrifuged for 5 minutes. The supernatant after centrifugation was filtered using a HybridSPE™ (Supelco, Bellefonte, USA) cartridge and the eluate was dried under an air stream. The powder was reconstituted in 100 µl of 50:50 (v/v) ammonium formate (pH=3):acetonitrile. After centrifugation the supernatant was used for analysis.

pTau = assay: Immunohistochemistry of pTau (PHF-1, AT8) in J20 mice; type: in vivo; settings: J20 mice treated for 10 weeks
Description: Results were compared with those obtained from age-matched negative littermates (controls). To test the effect of the PDE5 inhibitors in cognition capacity related to aging, a second treatment was carried out using 10-12 month-old non-transgenic (wild type) mice on an inbred C57/B6xSJL genetic background.
Twenty four hours after the fear conditioning test, animals (n=5, per group) were sacrificed and the brains removed for biochemical studies. The cortex and hippocampus were dissected, homogenized, and processed as described below for subsequent western blot analysis. Under xylazine/ketamine anesthesia, animals (n=4 per group) were perfused transcardially with saline and 4% paraformaldehyde in phosphate buffer (PB). After perfusion, brains were removed, post-fixed in the same fixative solution for 1 h at room temperature and cryoprotected in 30% sucrose solution in PB overnight at 4 °C. […]
For p-tau staining, slides were incubated in blocking solution (3% milk in TBS) and incubated overnight with primary antibody AT8 (1:50 v/v, Pierce, Woburn, MA, USA) or PHF1 (1:100 v/v, Dr. Peter Davies, Albert Einstein College, Bronx, NY, USA) at 4 °C. […] Fluorescence signals were detected with confocal microscope LSM 510 Meta (Carl Zeiss, Germany); objective Plan-neofluar 40x/1.3 oil DIC. Sections were evaluated in Z-series (0.4 microm steps) using LSM 510 Meta software.

[2] = test system: central nervous system (CNS) function; settings: doses ≤100 mg/kg orally; EMEA assessment report for Adcirca (WC500069602); cited from earlier work
[3] = quoted from WO2010/074783, page 109; cited from earlier work
[4] = test system: maternal-separated rat pups; settings: Baek et al. (2011); cited from earlier work
gerbils = settings: Ko et al. (2009); cited from earlier work
[5] = BB = ratio of brain versus serum concentration, n=6 treated mice, (Standard Deviation)
[6] = concentration of tadalafil 90 minutes after oral administration of Cialis (15 mg/Kg), individual mice

CN1CC(=O)N2[C@H](c3ccc4c(c3)OCO4)c3[nH]c4ccccc4c3C[C@@H]2C1=O [tadalafil, (6R-trans)-6-(1,3-benzodioxol-5-yl)-2,3,6,7,12,12a-hexahydro-2-methyl-pyrazino [1',2':1,6] pyrido [3,4-b]indole-1,4-dione]
logBB (Ctx) [1, 5]: -0.89 (0.16)^b | logBB (Hip) [1, 5]: -0.81 (0.17)^b | logBB (Str) [1, 5]: -0.98 (0.13)^b | Hip ([1]; Hippocampus, 90 minutes after oral administration of Cialis (15 mg/Kg), individual mice): 0.45 µM and 0.91 µM and 1.54 µM and 2.19 µM and 1.48 µM and 1.35 µM | Ctx ([1]; Prefrontal Cortex, 90 minutes after oral administration of Cialis (15 mg/Kg), individual mice): 0.61 µM and 1.25 µM and 1.22 µM and 1.35 µM and 0.73 µM and 0.91 µM | Str ([1]; Striatum, 90 minutes after oral administration of Cialis (15 mg/Kg), individual mice): 0.39 µM and 0.82 µM and 1.09 µM (2×) and 0.72 µM and 0.93 µM | logBB (brain) [1]: -0.89+/-0.09 | logBB (brain) ([1]; listed as Tadalafil): -0.89 (0.09)^b | Serum (µM) [1, 6]: 4,95 µM | concentration at 90 min [1, 6]: 9.65 µM and 7.27 µM and 10.23 µM and 8.10 µM | Kp at 90 min ([1]; mouse, oral, 15 mg/Kg, from logBB of the three brain areas): ~0.12 | concentration at 90 min ([1]; mouse, serum, oral, 15 mg/Kg, concentration of tadalafil 90 minutes after oral administration of Cialis (15 mg/Kg), individual mice): 6.53 µM | pTau levels, PHF-1 anti-p-Tau Ser-396/404 antibody labeling (pTau; hippocampal and cortical slices): decrease in pTau levels; also recorded: much more marked than in animals treated with sildenafil | pTau pathology, anti-pTau antibody recognizing Ser202 and Thr205 (AT8) labeling (pTau; hippocampus slices): lesser pTau pathology in animals treated with tadalafil than with sildenafil | effects on central nervous system (CNS) function [2]: no effects | ability to cross the BBB [3]: unable to cross the BBB | depressive symptoms, memory impairment, apoptosis and cell proliferation in the hippocampus [4]: improves depressive symptoms, ameliorates memory impairment, as well as suppresses apoptosis and enhances cell proliferation | short-term memory (gerbils): improves short-term memory
